The subject of experiment [1] is mouse keratinocytes. To be noted: mouse keratinocytes in vitro; cited from earlier work.
Experiment [2] has as its system Hs27 human fibroblast / HEK human keratinocyte co-cultures. As to the kind of experiment: Pro-collagen synthesis in fibroblast/keratinocyte co-cultures (ELISA). The arrangement: key: a “+” sign indicates an increase in synthesis; ++: multiple “+” signs indicating a higher increase in synthesis; +++: multiple “+” signs indicating a higher increase in synthesis; ++++: multiple “+” signs indicating a higher increase in synthesis; a “−” sign indicates decrease in synthesis; −−: multiple “−”signs indicating a higher decrease in synthesis. It is filed as cell-based. To be noted: 10 mg/ml, overnight, pro-collagen in supernatant. On the procedure:
Hs27, a human fibroblast cell culture and HEK, a human keratinocyte cell culture, were established in 24 well plates. The cells were exposed to various ingredients used in formulations of the present invention at concentrations of 10 mg/ml. The co-cultures were then incubated overnight. The following day, supernatants were collected. The supernatants were analyzed for the presence of pro-collagen, a soluble precursor of collagen formed by fibroblasts in the process of collagen synthesis. Pro-collagen synthesis was assayed using commercially available ELISA kits. See […], Falabella A, Ochoa S, Zhou […]. “Dermal fibroblasts from venous ulcers are unresponsive to the action of transforming growth factor-beta 1.” J Dermatol Sci. 1997. 16(1):59-66.

For experiment [3] the test system is unchanged. As to the kind of experiment: Elastin synthesis in fibroblast/keratinocyte co-cultures (Fastin Elastin kit). It is filed as cell-based. To be noted: 10 mg/ml, overnight, elastin in supernatant. The arrangement: key: a “+” sign indicates an increase in synthesis; ++: multiple “+” signs indicating a higher increase in synthesis; +++: multiple “+” signs indicating a higher increase in synthesis; ++++: multiple “+” signs indicating a higher increase in synthesis; a “−” sign indicates decrease in synthesis; −−: multiple “−”signs indicating a higher decrease in synthesis. On the procedure: Hs27, a human fibroblast cell culture and HEK, a human keratinocyte cell culture, were established in 24 well plates. The cells were exposed to various ingredients of the formulations of the present invention at concentrations of 10 mg/ml. The co-cultures were then incubated overnight. The following day supernatants were collected. The supernatants were analyzed for the presence of elastin using the Fastin Elastin® kit from Biocolor. Liao […]. 2004. “Relationship between collagen fibrils, glycosaminoglycans, and stress relaxation in mitral valve chordae […].” Ann. Biomed. Eng. 32(7):977-983.

The test system of experiment [4] is Human HEK001 cells. As to the kind of experiment: Lipid synthesis, Oil Red O staining. The arrangement: key to Lipids: a “+” sign indicates an increase in synthesis; ++: multiple “+” signs indicating a higher increase in synthesis; +++: multiple “+” signs indicating a higher increase in synthesis; ++++: multiple “+” signs indicating a higher increase in synthesis; a “−” sign indicates decrease in synthesis; −−: multiple “−”signs indicating a higher decrease in synthesis. To be noted: 0.005%, overnight; for Lipids: 0.05%, and 0.5% in media, Oil Red O OD 515 nm. It is filed as cell-based. On the procedure:
Human HEK001 cells were plated at 2×10^4/well in 96 well plates and were incubated overnight. The following day, the cells were exposed to: glycine, Cherokee rose hips, grape seed extract, Wolfberry extract, Pickled Ume, Ascorbic acid, Chinese Angelica extract, royal jelly, and α-tocopherol, which were diluted into cell culture media at concentrations of 0.005%, 0.05%, and 0.5%. The cells were then again incubated overnight. The following day, the cells were fixed in 1% formaldehyde. Cellular lipids were then stained with Oil Red O® stain. See Ramirez J L, Castro-Munnozledo F, Kuri-Harusch W. 1992. “Quantitation of adipose conversion and triglycerides by staining intracytoplasmic lipids with Oil Red O.” Histochemistry. 97:493-497. Following staining, the lipid bound stain was extracted with isopropanol. The OD of the extracted stain was read at 515 nm.

The conditions of experiment [5]: daily consumption of tomato paste over ten weeks; cited from earlier work.
The target of experiment [6] is T1, Elastase (Sus scrofa, UniProt P00772).
T1 construct: purchased Molecular Probes
T1 sequence (P00772 27-266): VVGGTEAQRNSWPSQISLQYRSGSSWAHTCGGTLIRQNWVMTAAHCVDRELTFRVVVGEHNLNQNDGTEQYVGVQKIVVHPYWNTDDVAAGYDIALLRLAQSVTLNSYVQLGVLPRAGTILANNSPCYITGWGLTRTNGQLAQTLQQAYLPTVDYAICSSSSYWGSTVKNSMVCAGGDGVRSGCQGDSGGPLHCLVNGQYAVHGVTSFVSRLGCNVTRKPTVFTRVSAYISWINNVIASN
As to the kind of experiment: Elastase enzyme activity (Molecular Probes kit). It is filed as biochemical. The arrangement: key: a “+” sign indicates an increase in synthesis; ++: multiple “+” signs indicating a higher increase in synthesis; +++: multiple “+” signs indicating a higher increase in synthesis; ++++: multiple “+” signs indicating a higher increase in synthesis; a “−” sign indicates decrease in synthesis; −−: multiple “−”signs indicating a higher decrease in synthesis. To be noted: samples diluted to 100 μg/ml. The source says:
(§1) Commercially available kits were used for testing the effect of various ingredients used in the formulations of the present invention on the activity of the MMP-1, MMP-9, and elastase. Gould L J, Yager D R, McGeehan G M, Diegelmann R F. 1999. “Method to analyze collagenase and gelatinase activity by fibroblasts in culture.” In Vitro Cell. Dev. Biol. Anim. 35(2):75-79. For MMP-1, a kit from Amersham® was used according to the manufacturer's specifications. For MMP-9 and Elastase, kits from Molecular Probes® were used. The samples were prepared in stock solvent at stock concentrations of 100 mg/ml. The samples were diluted to 100 μg/ml using PBS.

The subject of experiment [7] is MMP-9. As to the kind of experiment: MMP-9 enzyme activity (Molecular Probes kit). Type of experiment: biochemical. The arrangement: key: a “+” sign indicates an increase in synthesis; ++: multiple “+” signs indicating a higher increase in synthesis; +++: multiple “+” signs indicating a higher increase in synthesis; ++++: multiple “+” signs indicating a higher increase in synthesis; a “−” sign indicates decrease in synthesis; −−: multiple “−”signs indicating a higher decrease in synthesis. To be noted: samples diluted to 100 μg/ml.
Description: as §1

In experiment [8] the target is T2, MMP-1 (Homo sapiens, UniProt P03956).
T2 construct: purchased Amersham
T2 sequence (P03956 100-469): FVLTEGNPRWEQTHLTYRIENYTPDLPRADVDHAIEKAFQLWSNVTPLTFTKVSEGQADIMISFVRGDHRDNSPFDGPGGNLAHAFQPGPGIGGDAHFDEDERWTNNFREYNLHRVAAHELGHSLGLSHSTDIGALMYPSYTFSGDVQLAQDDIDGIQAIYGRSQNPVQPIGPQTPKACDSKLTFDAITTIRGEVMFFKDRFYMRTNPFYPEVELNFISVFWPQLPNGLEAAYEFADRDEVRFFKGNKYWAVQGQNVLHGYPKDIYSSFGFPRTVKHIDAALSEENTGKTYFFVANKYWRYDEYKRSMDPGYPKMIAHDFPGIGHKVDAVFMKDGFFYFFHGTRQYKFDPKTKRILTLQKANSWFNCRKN
As to the kind of experiment: MMP-1 enzyme activity (Amersham kit). The arrangement: key: a “+” sign indicates an increase in synthesis; ++: multiple “+” signs indicating a higher increase in synthesis; +++: multiple “+” signs indicating a higher increase in synthesis; ++++: multiple “+” signs indicating a higher increase in synthesis; a “−” sign indicates decrease in synthesis; −−: multiple “−”signs indicating a higher decrease in synthesis. To be noted: samples diluted to 100 μg/ml. Type of experiment: biochemical.
Description: as §1

The subject of experiment [9] is humans. To be noted: supplementation with high doses; cited from earlier work.

For the molecule `O=C1O[C@H]([C@@H](O)CO)C(O)=C1O` [Ascorbic acid], the UVB-induced oxidative damage result in [1] is listed as “shown to reduce UVB-induced oxidative damage in mouse”. Further, in [2], the Collagen result is “++++”. The Elastin result in experiment [3] is on record as “+”. Further, the Lipids entry in experiment [4] is recorded as “−”.
Turning to `CC(C)=CCC/C(C)=C/C=C/C(C)=C/C=C/C(C)=C/C=C/C=C(C)/C=C/C=C(C)/C=C/C=C(\C)CCC=C(C)C` [Lycopene], the “protection against erythema formation following UV-irradiation” value in [5] is recorded as “a period of ten weeks provides protection against erythema formation”.
Regarding `Cc1c(C)c2c(c(C)c1O)CC[C@@](C)(CCC[C@H](C)CCC[C@H](C)CCCC(C)C)O2` [α-tocopherol], the Collagen entry in experiment [2] is “−”. In addition, the Elastase result in [6] is given as “−”. In experiment [3], the Elastin result was “−”. Also, the Lipids result in experiment [4] is “+”. For the same molecule, the “induction of lipid synthesis” value in experiment [4] (0.05%, and 0.5%, Oil Red O) is reported as “demonstrated the ability to induce lipid synthesis”. In addition, the MMP-9 entry in experiment [7] is given as “−”. Besides, the MMP-1 entry in [8] is recorded as “−”.
Consider `CC1=C(/C=C/C(C)=C/C=C/C(C)=C/C=C/C=C(C)/C=C/C=C(C)/C=C/C2=C(C)CCCC2(C)C)C(C)(C)CCC1` [beta-carotene], for which the “protection against UV-induced erythema” value in experiment [9] was “with high doses of beta-carotene protects against UV-induced”.
As for `NCC(=O)O` [Glycine], the Collagen result in experiment [2] was “+”. Moreover, the Elastin result in [3] is “−”. In addition, the Lipids entry in experiment [4] is given as “−”.

The values above are taken from patent US7348034B2, “Plant based formulations for improving skin moisture, texture, and appearance” (Access Business Group International LLC, priority 2005, dated 2008).
